What all share (type): functional
Assay [1] has as its system P388. As to the kind of experiment: In vivo cytotoxicity against mouse P388 cells at 0.78 to 3.1 mg/kg relative to control. The settings on record: dose mg/kg 0.78-3.1.
For assay [2], the system named is P388. The experiment in a line: Cytotoxicity against mouse P388 cells. The settings on record: read-out: ED50 (the source's name).
Assay [3] deals with P388. As to the kind of experiment: In vivo cytotoxicity against mouse P388 cells at 0.75 to 6 mg/kg relative to control. The settings on record: dose mg/kg 0.75-6.
The test system of assay [4] is P388. The experiment in a line: In vivo cytotoxicity against mouse P388 cells at 12.5 mg/kg relative to control.

As for `O=C1N[C@H]2[C@H](O)[C@H](O)[C@@H](O)[C@H](O)[C@@H]2c2cc3c(c(O)c21)OCO3` [PANCRATISTATIN], the T/C was 135% in the assay on P388 [1], 138% in the assay with P388 [3] and 206% with P388 [4]. Further, the EC50 with P388 [2] was under 0.01 µg/mL.

The values are drawn from ChEMBL document CHEMBL1151635, “Antineoplastic agents, 105. Zephyranthes grandiflora” (1984).
